In patent publication US20250102494A1, “COMPOSITION FOR PREDICTING OXALIPLATIN DRUG EFFICACY, AND USE THEREOF” (SAMSUNG LIFE PUBLIC WELFARE FOUNDATION, priority 2022, published 2025):

Tested on: HCT116 cells
Assay: ATPlite cell viability after drug treatment, HCT116 cells in cell-line or organoid culture media
Type: cell-based
Settings: HCT-116; for drug response, colorectal cancer cell line compared with cells under Ex1 organoid culture conditions: FIG. 2; for drug responsiveness, colorectal cancer cell line compared with organoids cultured in Ex1 and Ex2: FIG. 25
Protocol: Advanced DMEM/F12+++ (hereinafter referred to as “Ad/DF+++”) was used to produce colorectal cancer organoids. Ad/DF+++ was refrigerated at 4° C. until use, and was used in a cold state during cell washing. Ad/DF+++ medium containing the reagents shown in Table 1 below along with Ad/DF 1× (Gibco) was prepared.
After preparing the Ad/DF+++ medium containing the above reagents, an appropriate amount of Matrigel (Corning #356231) was added so that the ratio between Matrigel and cells suspended in the Ad/DF+++ medium was 7:3. Then, the cells were plated on low attachment well plates at an appropriate density. The density and the type and number of well plates were determined according to the characteristics of each cell type. The medium was prepared according to the composition shown in Table 2 below, and the cells were cultured (expanded) until the required level was reached while the medium was replaced every 3 to 4 days.
If the organoids were expanded as needed for the experiment, the medium was carefully removed, taking care not to touch the Matrigel. The cells were separated from the Matrigel by pipetting about 20 times with 1 ml of cold Ad/DF+++. The cells in 1 to 4 wells per 6-well plate were collected in one 50 ml tube. If cells are collected from more than 4 wells into one tube, the Metrigel may not be washed properly. For this reason, the cells were placed in several tubes. Thereafter, Ad/DF+++ was poured to 20 to 50 ml of each tube, followed by centrifugation at 400 g for 3 minutes at 4° C. The cells were dissociated with 1 to 2 mL of TrypLE™ Express Enzyme (Gibco, 1264-013), transferred to low-attachment 24 well plates, and then treated with 10 μM of Y-27632. Next, the cells were cultured in a CO2 incubator for 5 minutes at 37° C. After pipetting about 20 times, whether the cells would be dissociated into single cells was checked by microscopic observation. If the cells were not dissociated into single cells, the culture under CO2 and pipetting processes were repeated. After the single cells were transferred into 15-ml tubes, Ad/DF+++ was filled to 10 to 15 ml of each tube, followed by centrifugation at 400 g at 4° C. for 3 minutes. After suspending the pellet in Ad/DF+++, the cells were counted and diluted with medium according to the required number of cells.
12 hours after seeding in Experimental Example 1-2 above, the medium was changed with the medium shown in Table 3 below, followed by culturing to produce organoids.
Four hours after the medium change, the cells were treated with oxaliplatin, 5-FU, Irinotecan, and folinic acid. Five days after drug treatment, intracellular ATP expression was determined using the ATPlite assay kit (PerkinElmer), and the data were expressed in terms of cell viability, IC50, and AUC.
As the standard for confirming that cells are sensitive to the drug, the response of the cells to the drug was assumed to be 100%, and the luminescence value of surviving cells after drug treatment was analyzed and compared with the quantified drug response value.
Based on the assumption that the factor that increases the resistance of the organoids to oxaliplatin is an activator or inhibitor that changes the phenotype, the organoids prepared by excluding some or all of activators and inhibitors as shown in Table 4 below were treated with oxaliplatin.
In order to identify the factors that reduce the resistance to oxaliplatin of the Ex2 organoid, activators or inhibitors that change the phenotype were added one by one to the Ex2 organoid composition, thus producing organoids as shown in Table 8 below. Then, it was checked whether the produced organoids had increased resistance to oxaliplatin.

Compound | drug response, colorectal cancer cell line compared with cells under Ex1 organoid culture conditions | drug responsiveness, colorectal cancer cell line compared with organoids cultured in Ex1 and Ex2
CCc1c2c(nc3ccc(OC(=O)N4CCC(N5CCCCC5)CC4)cc13)-c1cc3c(c(=O)n1C2)COC(=O)[C@]3(O)CC [irinotecan] | drug response results similar to those of the cells cultured under the organoids culture conditions | drug responses similar to the cells cultured in the organoid culture conditions
O=c1[nH]cc(F)c(=O)[nH]1 [5-FU, 5-fluorouracil] | drug response results similar to those of the cells cultured under the organoids culture conditions | drug responses similar to the cells cultured in the organoid culture conditions
Nc1nc(=O)c2c([nH]1)NCC(CNc1ccc(C(=O)N[C@@H](CCC(=O)O)C(=O)O)cc1)N2C=O (mixture of isomers) [folinic acid] | drug response results similar to those of the cells cultured under the organoids culture conditions | drug responses similar to the cells cultured in the organoid culture conditions
